What was measured:
[1] = molecular target: T1, recombinant human 5-HT6 receptors (Homo sapiens, UniProt P50406); test: Competitive radioligand binding ([3H] Lysergic acid diethylamide) to membranes of HeLa cells expressing recombinant human 5-HT6 receptors; conditions: 1.5 nM [3H] Lysergic acid diethylamide, 120 min, 37° C., HeLa cell membranes; for IC50: read-out: IC50 of serotonin 5-HT6 receptor inhibition in the setting of competitive binding; for Ki: read-out: Ki of serotonin 5-HT6 receptor inhibition in the setting of competitive binding
T1 construct: expressed in transfected cells; host or cells: HeLa (membrane preparation)
Method: Activity determination of serotonin 5-HT6 receptor antagonists of the general formula 1 in the setting of competitive binding to serotonin 5-HT6 receptors.
Screening of disclosed compounds for their potential ability to interact with serotonin 5-HT6 receptors was carried out by method of radioligand binding. For this purpose membrane species were prepared from expressing recombinant human 5-HT6 receptors HeLa cells by means of their homogenization in glass homogenizer with subsequent separation of plasmatic membranes from cell nucli, mitochondria's and cell wreckages by differential centrifugation. […] Mol Pharmacol. 43:320-327, 1993]. In the preferred embodiment membrane preparations were incubated with radioligand (1.5 nM [^3H] Lysergic acid diethylamide) without and in the presence of investigated compounds for 120 min at 37° C. in medium consisting of […], pH 7.4, 150 mM NaCl, 2 mM Ascorbic Acid, 0.001% BSA. After incubation the samples were filtered in vacuo on glass-microfiber filters G/F (Millipor, USA), filters were washed three times with cold solution of medium and radioactivity was measured by scintillation counter MicroBeta 340 (PerkinElmer, USA). Nonspecific binding which made up 30% of overall binding was determined by incubation of membrane preparations with radioligand in the presence of 5 μM Serotonin (5-HT). Methiothepin was used as positive control. Binding of tested compounds with the receptor was determined by their ability to displace the radioligand and expressed in percent of displacement. The percent of displacement was calculated according to the following equation:
[formula] wherein: TA—was overall radioactivity in the presence of radioligand only, CA—was radioactivity in the presence of radioligand and tested compound and NA—was radioactivity in the presence of radioligand and Serotonin (5 μM).
Table 4 presents the test results for some serotonin 5-HT6 receptor antagonists of general formulas 1 and 2 in the setting of competitive binding to serotonin 5-HT6 receptors, testifying their high activity towards serotonin 5-HT6 receptors.

serotonin 5-HT6 receptor = molecular target: T2, serotonin 5-HT6 receptor (Homo sapiens, UniProt P50406); test: Functional assay: antagonism of serotonin-induced intracellular cAMP (LANCE cAMP) in HEK 293 cells expressing 5-HT6 receptor; type: cell-based; conditions: HEK 293 cells with expressed 5-HT6 receptor, read-out: IC50 of serotonin 5-HT6 receptor inhibition in the setting of functional assay
T2 construct: expressed in transfected cells; host or cells: HEK 293
Method: Determination of antagonistic activity of compounds of general formula 1 towards 5-HT6 receptors. Compounds of general formula 1 were tested for their ability to prevent 5-HT6 receptors activation by serotonin. HEK 293 cells (cells of human embryo's kidney) with artificially expressed 5-HT6 receptor, activation of which by serotonin leads to increasing the concentration of intracellular cAMP were used. The content of intracellular cAMP was determined using reagent kit LANCE cAMP (PerkinElmer) according to the method described by the manufacturer of the kit [http://las.perkinelmer.com/content/Manuals/MAN_LANCEcAMP384KitUser.pdf]. Effectiveness of compounds was estimated by their ability to reduce the content of intracellular cAMP induced by serotonin. Table 3 presents ICso values of serotonin 5-HT6 receptor inhibition by antagonists of general formula 1 and 2 in the setting of functional assay. The data given testify their high antagonistic activity.

[2] = system: mice behavior in elevated plus maze; test: Mice Behavior in the Elevated Plus Maze (anxiolytic action); type: in vivo; conditions: five minutes
From the text: Anxiolytic (tranquilizing) action of compounds of general formulas 1 and 2 in the test “Mice Behavior in the Elevated Plus Maze”. The length of each arm of the maze is 30 cm, width is 5 cm, and height of walls is 15 cm. Two opposite arms are closed from both sides and end faces by transparent walls, the other two arms are lit and opened. A mouse was placed in the center of maze, and for the next five minutes the number of entries into opened and closed arms and the time spent in each type of arms was registered. […] The animals usually avoid opened arms (the preference index is between 0.2 and 0.3). Compounds with tranquilizing action increase this index up to 0.5-0.6 or even more and reduce the number of defecations without changing the overall motion activity of the mice (the total number of entries to the arms).

[3] = system: memory disturbed by MK-801; test: Passive Avoidance of mice in the Shuttle Chamber, memory disturbed by MK-801; type: in vivo; conditions: MK-801 0.1 mg/kg, injected 30 minutes before training
Method: The testing was carried out as in example 7. On the first day of testing 30 minutes before training the mice were injected intraintestinally with physiological solution of MK-801 (0.1 mg/kg). Concurrently, physiological solution of MK-801 in combination with active ingredient 1.1(1) was injected intraintestinally to independent groups of mice before training.

[4] = system: memory disturbed by Scopolamine; test: Passive Avoidance of mice in the Shuttle Chamber, memory disturbed by Scopolamine; type: in vivo; conditions: aged male BALB/c mice; Scopolamine 0.3 mg/kg, injected 30 minutes before training; retest in 22-24 hours
Method: A shuttle chamber (Ugo Basile, Italy) consisted of two sections was used. The walls of one section were opaque while the other section had transparent cover. The sections were connected through a hole which could be overlapped by vertical door. The floor was made of transverse metal bars on which DC current impulses could be fed. Experiments were carried out in aged male mice of BALB/c line weighing 20-24 grams.
On the first day of testing 30 minutes before training mice were injected intraintestinally with physiological solutions of Scopolamine (0.3 mg/kg) or Scopolamine in combination with active ingredient 1.1(1). Each group consisted of at least 8 animals. Animals were placed in light section, and latent period of the first entry into dark chamber was registered. Then vertical door was closed and the animal was punished by 0.6 mA DC current for 3 seconds. After that the animal was taken back to its homecage. In 22-24 hours the same animal was placed again in light section of the shuttle chamber and latent period of its first entry into dark section, the total time of its stay in light section and the number of entries into dark section, was registered. Each monitoring lasted for 5 minutes.
Testing was carried out during the day time in isolated laboratory using white noise at level of about 70 decibel above human hearing threshold. […]

T2 sequence (P50406 whole entry): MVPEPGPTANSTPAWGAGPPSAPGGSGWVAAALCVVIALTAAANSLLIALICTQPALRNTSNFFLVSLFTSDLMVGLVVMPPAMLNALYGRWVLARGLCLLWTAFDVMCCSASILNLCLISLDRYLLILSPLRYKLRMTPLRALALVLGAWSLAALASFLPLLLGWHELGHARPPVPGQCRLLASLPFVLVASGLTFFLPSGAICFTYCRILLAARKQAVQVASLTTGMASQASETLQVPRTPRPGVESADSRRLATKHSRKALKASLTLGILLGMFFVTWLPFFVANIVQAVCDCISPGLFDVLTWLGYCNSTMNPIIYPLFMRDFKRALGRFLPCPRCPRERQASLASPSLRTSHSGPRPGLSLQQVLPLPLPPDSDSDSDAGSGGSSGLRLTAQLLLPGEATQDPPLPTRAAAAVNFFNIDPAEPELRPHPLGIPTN
T1 sequence (P50406 whole entry): as above

Structure (SMILES)	IC50 [1] [nM]	Ki [1] [nM]	IC50 (serotonin 5-HT6 receptor) [nM]	Anxiolytic (tranquilizing) action [2]	Nootropic action (enhancement of memory disturbed by MK-801) [3]	Nootropic action (enhancement of memory disturbed by Scopolamine) [4]
CNc1nn2c3c(c(C)nc2c1S(=O)(=O)c1ccccc1)CCC3 [1.1(3), 5-methyl-2-methylamino-3-(phenylsulfonyl)-7,8-dihydro-6H-cyclopenta[e]pyrazolo[1,5-a]pyrimidine]	0.436	0.202	7	–	–	–
CNc1nn2c(C)c3c(nc2c1S(=O)(=O)c1ccccc1)CCCC3 [2(2)]	0.551	0.256	15.5	–	–	–
CNc1nn2c3c(c(C)nc2c1S(=O)(=O)c1ccccc1)CCCC3 [1.2(3), 5-methyl-2-methylamino-(3-phenylsulfonyl)-6,7,8,9-tetrahydrocyclohexa[e]pyrazolo[1,5-a]pyrimidine]	1.05	0.49	–	–	–	–
CNc1nn2cc3c(nc2c1S(=O)(=O)c1ccccc1)CCCC3 [2(1)]	1.07	0.499	7.5	–	–	–
CNc1nn2c3c(cnc2c1S(=O)(=O)c1ccccc1)CCC3 [1.1(1), 2-methylamino-3-(phenylsulfonyl)-7,8-dihydro-6H-cyclopenta[e]pyrazolo[1,5-a]pyrimidine]	0.157	0.073	4.8	anxiolytic (tranquilizing) action which is comparable with the activity of Buspirone and Lorasepam	nootropic effect	nootropic action
CNc1nn2c3c(cnc2c1S(=O)(=O)c1ccccc1)CCCC3 [1.2(1), 2-methylamino-3-(phenylsulfonyl)-6,7,8,9-tetrahydrocyclohexa[e]pyrazolo[1,5-a]pyrimidine]	0.241	0.112	4.4	–	–	–

Source: patent publication US8471009B2, “(EN) 2-alkylamino-3-arylsulfonyl-cycloalcano [e OR d] pyrazolo [1,5-A]pyrimidines / antagonists of serotonin 5-HT6 receptors, methods for the production and the use thereof” (priority 2008, dated 2013)
